How the values were obtained:
[1] = Distribution, dosimetry and safety in healthy volunteers (PET/CT, OLINDA/EXM); type: in vivo, human
Procedure: This experiment was approved by the Clinical Research Ethics Committee of the First Affiliated Hospital of Xiamen University, and all subjects signed a written informed consent form. A dose of ^68Ga-2PEG(3)-FAPI-dimer for intravenous injection (1.8 MBq to 2.2 MBq [0.05 mCi to 0.06 mCi]/kg) was calculated according to a body weight of a subject. Data were acquired using a hybrid PET/CT scanner (Discovery MI, GE Healthcare, Milwaukee, WI, USA) at 10 min, 30 min, 60 min, and 180 min after intravenous injection. A maximum standard uptake value (SUVmax) was automatically calculated with ROIs drawn on a transaxial image. Safety data, including vital signs (blood pressure, pulse, respiratory rate, and body temperature) and adverse events, were acquired 4 h before and after the ^68Ga-2PEG(3)-FAPI-dimer was injected. […] The time-activity curve fitting and subsequent dose calculation were conducted using OLINDA/EXM v.1.1.

FAP-expressing CAFs = assay: Cellular uptake and cellular uptake blockade in CAFs; type: cell-based, human
Procedure: A human HCC cell line Huh7 was purchased from the National Experimental Cell Resource Sharing Platform, China. CAFs were extracted from a surgical specimen of an HCC patient.
After the CAFs were verified as cells with high FAP expression, the next experiment was conducted. […]
FAP-expressing CAFs were inoculated in a 24-well plate and cultivated with a 10% (volume fraction) FBS-containing 1640 medium for 48 h before the experiment until a cell density was about 80% to 90%; the medium was changed to an FBS-free 1640 medium; and the ^68Ga-2PEG(3)-FAPI-dimer, ^68Ga-FAPI-46, or ^68Ga-2PEG(3)-FAPI-dimer+11.3 nmol FAPI-46 (for the blocking experiment) was added to the 24-well plate and incubated, with predetermined intervals of 10 min, 30 min, 60 min, 90 min, and 120 min. […] A half-inhibitory concentration (IC50s) was calculated by using GraphPad Prism to fit data through nonlinear regression. […]

HCC-PDX-1 = assay: Biodistribution in HCC-PDX-1 mice (gamma counter); type: in vivo, mouse; details: for tumor uptake: HCC-PDX-1, 1.48 MBq
Procedure: HCC-PDX-1 mice were injected with 1.48 MBq of ^68Ga-2PEG(3)-FAPI-dimer, and 1 h and 4 h after the injection (3 parallel experiments per time point), major organs and tumors were isolated, weighed, and analyzed. The ^68Ga-FAPI-46 group (1.48 MBq) and blocking group (1.48 MBq ^68Ga-2PEG(3)-FAPI-dimer+30 nmol unlabeled FAPI-46) were compared in terms of biodistribution.

[2] = three healthy volunteers, i.v., OLINDA/EXM

tumor uptake in the blocking group (HCC-PDX-1; HCC-PDX-1, 1.48 MBq + 30 nmol unlabeled FAPI-46, 1 h after injection): 1.07±0.19 % ID/g | tumor uptake in the blocking group (HCC-PDX-1; HCC-PDX-1, 1.48 MBq + 30 nmol unlabeled FAPI-46, 4 h after injection): 1.14±0.15 % ID/g | tumor uptake (HCC-PDX-1; 1 h after injection): 8.97±0.32 % ID/g | tumor uptake (HCC-PDX-1; 4 h after injection): 7.61±0.64 % ID/g
Compound: CN(CCCN1CCN(C(=O)COCCOCCOCCNC(=O)CCC(=O)N[C@@H](CCCCNC(=O)CN2CCN(CC(=O)[O-])CCN(CC(=O)[O-])CCN(CC(=O)[O-])CC2)C(=O)NCCOCCOCCOCC(=O)N2CCN(CCCN(C)c3ccc4nccc(C(=O)NCC(=O)N5CC(F)(F)C[C@H]5C#N)c4c3)CC2)CC1)c1ccc2nccc(C(=O)NCC(=O)N3CC(F)(F)C[C@H]3C#N)c2c1.[68Ga+3] [^68Ga-2PEG(3)-FAPI-dimer]
discomfort symptoms after injection (vital signs, adverse events) ([1]; i.v. 1.8 MBq to 2.2 MBq/kg, 4 h before and after injection): did not undergo any discomfort symptoms | Average value, Adrenal gland (dosimetry) [1, 2]: 7.98E−05 mSv/MBq | Average value, Ascending colon wall (dosimetry) [1, 2]: 2.79E−05 mSv/MBq | Average value, Bladder wall (dosimetry) [1, 2]: 1.04E−03 mSv/MBq | Average value, Brain (dosimetry) [1, 2]: 3.16E−05 mSv/MBq | Average value, Breast (dosimetry) [1, 2]: 6.36E−05 mSv/MBq | Average value, Descending colon wall (dosimetry) [1, 2]: 9.22E−04 mSv/MBq | Average value, Effective dose [1, 2]: 1.19E−02 mSv/MBq | Average value, Effective dose equivalent [1, 2]: 1.69E−02 mSv/MBq | Average value, Kidney (dosimetry) [1, 2]: 1.01E−04 mSv/MBq | Average value, Liver (dosimetry) [1, 2]: 1.65E−03 mSv/MBq | Average value, Lung (dosimetry) [1, 2]: 1.36E−03 mSv/MBq | Average value, Muscle (dosimetry) [1, 2]: 4.19E−05 mSv/MBq | Average value, Osteoblast (dosimetry) [1, 2]: 6.47E−05 mSv/MBq | Average value, Ovary (dosimetry) [1, 2]: 5.94E−04 mSv/MBq | Average value, Pancreas (dosimetry) [1, 2]: 7.61E−04 mSv/MBq | Average value, Red bone marrow (dosimetry) [1, 2]: 1.12E−03 mSv/MBq | Average value, Skin (dosimetry) [1, 2]: 1.22E−05 mSv/MBq | Average value, Small intestine (dosimetry) [1, 2]: 5.18E−05 mSv/MBq | Average value, Spleen (dosimetry) [1, 2]: 1.58E−04 mSv/MBq | Average value, Stomach wall (dosimetry) [1, 2]: 7.12E−04 mSv/MBq | Average value, Thymus (dosimetry) [1, 2]: 9.64E−06 mSv/MBq | Average value, Thyroid (dosimetry) [1, 2]: 3.11E−03 mSv/MBq | Average value, Uterus (dosimetry) [1, 2]: 1.27E−05 mSv/MBq | cell uptake blockade: binding to FAP blocked by FAPI-46 precursor (FAP-expressing CAFs; +11.3 nmol FAPI-46): can significantly block | absorption value relative to ^68Ga-FAPI-46 monomer in CAFs (FAP-expressing CAFs; incubation 10 min to 120 min): about twice

Reference: patent US11952368B2, “FAPI dimer compound, FAPI dimer-based positron emission tomography (PET) imaging agent for tumor diagnosis, and preparation method and use thereof” (XIAMEN UNIVERSITY, priority 2021, dated 2024)
